# Data published in patent publication US20240261258A1, “Presurgical Perineural Administration of Resiniferatoxin For Reduction of Post-Operative Pain” (Sorrento Therapeutics, Inc., priority 2021, published 2024).
# Tests used:
# [1] = tested on: healthy dogs undergoing TPLO surgery; test: Clinical observations during RTX instillation under general anesthesia and recovery; type: in vivo, dog
# Source text: This example provides safety data related to the tolerability of RTX administered as a nerve block pre-surgically and as a local application on the surgical site intraoperatively in healthy dogs undergoing tibial plateau levelling osteotomy (TPLO). Pharmacological behavior of RTX after a perineural injection and local application in the hindlimb and the long-term effects on bone healing was also observed.
# Fourteen adult female beagle dogs, weighing 11.9±0.6 kg and between 3-5 years of age, were enrolled in this study. Each animal was randomly assigned to one of four groups. Four dogs (group 1) received a femoral and sciatic nerve block with 12.5 μg RTX per nerve (25 μg RTX total) diluted with sterile saline for a total volume of 2 mL (half volume per block). Another four dogs (group 2) received a femoral and a sciatic nerve block with 3.12 μg RTX per nerve block (6.25 μg RTX total) diluted with sterile saline for a total volume of 2 mL (half volume per block). Group 3 (4 animals) received a femoral and sciatic nerve block with 5 mg bupivacaine total (standard of care) plus a total of 50 μg RTX (total volume of 4 mL, concentration 12.5 μg/mL) applied locally to the cut on the tibia for 10 min. Group 4 (2 animals) was the control group and received a femoral and a sciatic nerve block with 5 mg bupivacaine total (standard of care).
# Dogs were sedated and anesthetized using standard protocols and following the American College of Veterinary Analgesia and Anesthesia guidelines. A physical exam was performed prior to surgery and a complete blood count and chemistry profile were submitted. Food was withheld for 8-10 hours before surgery and offered again 4-6 hours after recovery from anesthesia.
# Diphenhydramine (2.2 mg/kg) was given IM after induction. The peripheral IV catheter was used for administration of fluid (Lactate Ringer's solution (LRS) at 5 mL/kg/h), and intraoperative drugs when necessary (hydromorphone and/or ketamine and/or dexmedetomidine for analgesia, atropine in case of bradycardia, dopamine or dobutamine in case of hypotension). Cefazolin 22 mg/kg was administered intravenously prior to surgery and every 60-90 minutes during surgery.
# Femoral and sciatic nerve blocks with RTX or bupivacaine were performed after induction of general anesthesia, and followed by surgery (TPLO). RTX was administered at least 15 minutes prior to any cut made to the bone. Dogs in group 3 received RTX during surgery via direct application on the bone.
# At the end of surgery, animals were allowed to recover. Following extubation, animals were supervised until able to stand and walk steadily, then monitored for the first 4 hours following the procedure. Food and water were given at 4-6 hours if recovery was smooth and uneventful. All subjects received oral carprofen 2.2 mg/kg twice a day for 10 days and trazodone 5-7 mg/kg twice a day, until the end of the study.
# Perineural injections (femoral and sciatic nerve block) of RTX were performed before surgery under general anesthesia and application of RTX over the bone incision was done during the surgical procedure. The nerve blocks were applied at after administration of anesthesia and least 15 minutes before surgery.
# For the perineural injections, the animal was placed in right lateral recumbency and the lateral and medial aspects of proximal area of the left hindlimb were clipped and prepared using an aseptic technique. A caudal approach was used for the sciatic nerve block. The ultrasound transducer was placed over the lateral aspect of the biceps femoris, just distal to the greater trochanter and oriented craniocaudally. After obtaining a short axis view of the sciatic nerve, a sheathed needle for electrolocation was inserted caudally in-plane with the ultrasound transducer until the tip of the needle reached the nerve. The correct location of the needle was confirmed by a positive response (twitches of the leg) after activation of the nerve locator using a current of 0.3-0.5 mA. […]
# [2] = tested on: healthy dogs undergoing TPLO surgery; test: Post-surgical evaluations (weight bearing, withdrawal reflex, proprioception, VAS, GCPS, injection and surgical site); type: in vivo, dog
# Source text: Before the subjects underwent surgery, baseline data including a physical examination, hindlimb motor evaluation, hindlimb sensory evaluation, site of injection evaluation, and surgical site evaluation were collected. During the 8-week post-operative follow-up period on day 1, 2, 3, 14, 28, and 56 all the above parameters were reevaluated by a researcher who was blinded to the treatment.
# After observing the animal in its cage and after evaluating the subject walking, the overall pain was scored using a visual analog scale (VAS) and the short form of the Glasgow composite pain scale (GCPS). The VAS consisted of a straight line 10 cm long with the left end, 0 cm, indicating no pain and the right end, 10 cm, indicating unbearable pain. The user placed a mark on the line that best represented the intensity of the subject's pain. Animals with a VAS greater than 4 cm and a GCPS greater that 6 were considered painful and received intramuscular hydromorphone at 0.1 mg/kg.
# The injection site of RTX or local anesthetic was evaluated by visual examination (normal, red, swollen) and palpation (no pain, mild, severe). The surgical site was evaluated by visual examination (normal, red, swollen) and with the aid of an algometer. With the dog in lateral recumbency, the tip of the algometer was placed on the surgical site and pressure was manually applied until the animal moved the leg. During the baseline data collection, several measurements were taken until 3 measurements were within ±1 Newton (N). The number recorded corresponded to the average of these 3 values. After surgery, the force was applied only once. Data were collected from both the left (treated) and the right (non-treated) hindlimbs.
# The withdrawal reflex and proprioception were assessed and scored as normal, decreased, or absent. The motor function was evaluated by encouraging the dog to stand and walk. Weight bearing standing and walking was scored as: normal, decreased (dog uses the leg but prefers the non-operated leg), or absent (dog avoids using the operated leg).
# [3] = Group 1 High, 25 μg total F/Sc nerve block
# [4] = Group 2 Low, 6.25 μg total F/Sc nerve block
# [5] = all subjects and timepoints, cutoff for painful
compound,measurement,setting,value
"C=C(C)[C@]12C[C@@H](C)[C@@]34O[C@](Cc5ccccc5)(O[C@@H]1[C@@H]3C=C(COC(=O)Cc1ccc(O)c(OC)c1)C[C@]1(O)C(=O)C(C)=C[C@@H]41)O2 [RTX, resiniferatoxin]",Dogs that required dobutamine to treat hypotension,"[1]; Group 1 (4 dogs), after RTX administration",None
same,Dogs given dexmedetomidine IV to treat dysphoria immediately after extubation,[1]; Group 2,one
same,Dogs given naloxone IV due to prolonged recovery,[1]; Group 2,One
same,Dogs that required dobutamine to treat hypotension,"[1]; Group 2 (4 dogs), after RTX administration",one
same,Dogs given dexmedetomidine IV to treat dysphoria immediately after extubation,[1]; Group 3,one
same,Dogs that required dobutamine to treat hypotension,[1]; Group 3 (4 dogs),two
same,Mean blood pressure after increase,"[1]; Subject 2968 (group 1), from 60 mmHg, 100 minutes after RTX, leg stretched during aseptic preparation",172 mmHg
same,Heart rate after increase,"[1]; Subject 2968 (group 1), from 90 bpm, 100 minutes after RTX, leg stretched during aseptic preparation",168 bpm
same,Tolerability,"[1]; all RTX treatments: nerve block 6.25 μg and 25 μg total, local gauze loaded with 50 μg",well tolerated
same,Change in heart rate and blood pressure,"[1]; approximately 15 to 25 minutes after RTX administration, group 1 and 2 subjects",mild to moderate increase
same,Respiratory observation after extubation,[1]; dogs in group 1 and 2,polypnea
same,Body temperature to which dogs decreased before polypnea ended,"[1]; dogs in group 1 and 2, after extubation",94-95 ° F
same,Duration of decrease in body temperature after the treatment,"[1]; some dogs of groups 1 and 2, clinically acted normally",up to 3 days
same,Persistence of hypothermia,"[1]; three subjects of group 1 (0271, 2968, 5635), without any clinical signs",over 24 hours
same,Use of leg within 2 hours of surgery: Intermittent toe touching (dogs/group),[2]; [3],touching: 2/4
same,Use of leg within 2 hours of surgery: Normal (dogs/group),[2]; [3],Normal: 2/4
same,Use of leg within 2 hours of surgery: Absent (dogs/group),[2]; [4],Absent: 1/4
same,Use of leg within 2 hours of surgery: Intermittent toe touching (dogs/group),[2]; [4],touching: 3/4;
same,Use of leg within 2 hours of surgery: Absent (dogs/group),"[2]; Group 3 Local, 50 μg on bone incision + 5 mg bupivacaine block",Absent: 4/4
same,Injection site finding in one subject,"[2]; a subject in group 1, both resolved within 24 hours",minimal reaction upon palpation at day 1 and a small red area at day 3
same,Injection site finding in one subject,[2]; a subject in group 3,small non-painful red area at day 14
same,Injection site appearance,[2]; all animals,normal
same,Withdrawal reflex,[2]; all dogs at all time points,normal
same,Time for redness and swollen areas around the surgical incision to resolve,"[2]; all dogs, regardless of group, after surgery",2 to 3 days
same,GCPS (short form Glasgow composite pain scale) score,[2]; [5],< 6
same,VAS pain score,[2]; [5],< 4 cm
same,Weight bearing scores,"[2]; day 14, 28, and 56, all dogs except for one in group 2 (interdigital cyst)",normal scores
same,Efficacy on post-operative pain,[2]; perineural injection at 6.25 μg and 25 μg RTX total in dogs undergoing TPLO surgery,short-term efficacy in treating post-operative pain
